Laboratory results from patent US10711000B2 (Fronthera U.S. Pharmaceuticals LLC, priority 2018, dated 2020).
Where two headings read alike, the source gives them in different places.

Columns and labels:
[1] = Pharmacokinetics after a single oral dose in SD rats; type: in vivo; settings: Sprague-Dawley, rat, plasma, single oral dose in 0.5% methylcellulose; for half-life: read-out: T½ (converted)
Source text: (§1) The pharmacokinetics and pharmacodynamics of test compounds after a single oral dose were investigated in SD rats, Beagle dog and Cynomolgus monkey. SD Rats (200-250 g) were purchased from Beijing Vital River Laboratory Animal Technology Co., Ltd. Male Beagle Dog, 6-9 kg, were purchased from Beijing Mashall. Male Cynomolgus monkeys, 3-5 kg, were purchased from Suzhou Xishan Zhongke Drugs Research and Development Co., Ltd. Following arrival, the animals were acclimated for 7 days in individual cages maintained at ambient temperature, 34 to 68% relative humidity, and 12-h light/dark cycles. Just prior to dose administration the rats were fasted overnight with free access to water. Animals were given 10 mL/kg of formulated compound in 0.5% methylcellulose (MC) by oral gavage, and the animals were fed four hours after dosing. The animals were manually restrained at the designated time points (pre-dose, 0.5, 1, 3, 6, 9, 12, and 24 h post-dose) to collect blood. Approximately 120 μL of blood was collected via orbital sinus into K2EDTA tubes. The blood samples were centrifuged at 5000 rpm for 10 min at 4° C. to obtain plasma samples.
(§2) To determine the compound concentration in the plasma samples, a 10× calibration standard of compound were prepared by serial dilution in DMSO: 20000, 10000, 5000, 2000, 1000, 500, 200, 100, 50, 20, and 10 ng/mL. 3 μL of calibration standard solution was added into 27.0 μL of blank plasma in 1.5-mL microcentrifuge tubes to generate 1× calibration standards. The 30.0 μL of standards or study plasma was mixed with 200 μL of acetonitrile (containing 5 ng/mL verapamil for internal control) in a 1.5-mL microcentrifuge tube. After vertexing for 1 minute and centrifuging at 10000 rpm for 10 min, 180 μL of supernatant was transferred into a 96-well plate and the compound concentration in the plasma was quantitated using LC/MS/MS together with standards. Briefly, 1 μL of the solutions were injected for LC-MS/MS analysis using an Agilent Zorbax C18 column (50×2.1 mm, 3.5 μm) with mobile phase A [5 mM NH4Ac (0.1% FA)] and phase B [Methanol (0.1% FA)]. Mass spectrometer parameters optimization for compound was performed by infusing standard diluted at 1 μg/mL in water/methanol (1/1, v/v) directly in the ionization source at a flow of 10 μL/min. Quantitative data were acquired in multiple reaction monitoring (MRM) positive APCI mode.

Autotaxin = target: T1, Autotaxin (Homo sapiens, UniProt Q13822); assay: LPA formation in pooled human plasma (ex vivo autotaxin inhibition); type: biochemical; settings: 2 hours incubation
T1 construct: from tissue; host or cells: pooled human plasma
Method in brief: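 Ex vivo: LPA 18:2 and 20:4 levels in compound-treated versus untreated pooled human plasma after 2 h incubation, measured by butanol extraction and negative-mode MRM LC/MS/MS against calibration standards. IC50 from non-linear fit of inhibition versus concentration.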

[2] = Pharmacokinetics in cynomolgus monkeys; type: in vivo; settings: male, cynomolgus monkey, plasma, po, P.O. (1 mg/kg)
Source text: as §1, §2

[3] = Metabolic stability in human hepatocytes; type: in vitro ADME; settings: cryopreserved human hepatocytes 0.5 million/mL, compound 1 μM
Method: The metabolic stability was examined in cryopreserved human hepatocytes. Compound (1 μM) was mixed with human hepatocytes at 0.5 million/mL, and a small aliquot was taken at 0, 15, 30, 60 and 90 minutes for LC/MS/MS analysis. Intrinsic clearance and half-time were calculated.

[4] = Metabolic stability in liver microsomes; type: in vitro ADME; settings: compound 1 μM; for metabolic stability (halftime in minutes), Dog: Beagle dog liver microsomes; for metabolic stability (halftime in minutes), Mouse: CD-1 mouse liver microsomes; for metabolic stability (halftime in minutes), Monkey: Cynomolgus monkey liver microsomes; for metabolic stability (halftime in minutes), Rat: SD rat liver microsomes
Method: The metabolic stability was examined in human, rat, mouse, dog and cynomolgus monkey liver microsomes. Compound (1 μM) was mixed with diluted liver microsomes from each of the 5 species and a small aliquot was taken at 0, 5, 10, 20, 30 and 60 minutes for HPLC MS/MS analysis. Intrinsic clearance and half-life were calculated.

[5] = Pharmacokinetics in beagle dogs; type: in vivo; settings: male, dog, plasma, po, P.O. (1 mg/kg)
Source text: as §1, §2

[6] = Pharmacokinetics in cynomolgus monkeys; type: in vivo; settings: male, cynomolgus monkey, plasma, iv, I.V. (1 mg/kg)
[7] = Pharmacokinetics in beagle dogs; type: in vivo; settings: male, dog, plasma, iv, I.V. (1 mg/kg)
[8] = LPA 18:2 by LC/MS/MS, read-out: LPA formation (18:2) (IC50)
[9] = LPA 20:4 by LC/MS/MS, read-out: LPA formation (20:4) (IC50)

| Structure (SMILES) | AUC [1] [ng·h/mL] | Cmax [1] [ng/mL] | half-life [1] [min] | IC50 (Autotaxin; [8]) [nM] | IC50 (Autotaxin; [9]) [nM] | AUC [2] [ng·h/mL] | metabolic stability (halftime in minutes), Human [3] [min] | metabolic stability (halftime in minutes), Dog [4] [min] | metabolic stability (halftime in minutes), Mouse [4] [min] | metabolic stability (halftime in minutes), Monkey [4] [min] | metabolic stability (halftime in minutes), Rat [4] [min] | metabolic stability (halftime in minutes), Human [4] [min] | AUC [5] [ng·h/mL] | Cmax [5] [ng/mL] | bioavailability [5] [%] | half-life [5] [min] | AUC [7] [ng·h/mL] | C0 [7] [ng/mL] | clearance [7] [mL/min/kg] | half-life [7] [min] | further results |
| --- | --- | --- | --- | --- | --- | --- | --- | --- | --- | --- | --- | --- | --- | --- | --- | --- | --- | --- | --- | --- | --- |
| CCn1nc2ncc(N3CC4(CN(C(=O)C5CCOCC5)C4)C3)cc2c1N(C)c1nc(-c2ccc(F)cc2)c(C#N)s1 [Compound 118, 2-((2-ethyl-5-(6-(tetrahydro-2H-pyran-4-carbonyl)-2,6-diazaspiro[3.3]heptan-2-yl)-2H-pyrazolo[3,4-b]pyridin-3-yl)(methyl)amino)-4-(4-fluorophenyl)thiazole-5-carbonitrile] | 2620 ± 1920 | 477 ± 250 | 231 ± 78 | ≤ 100 | ≤ 100 | 153 ± 10 | >216.8 | >145 | 58.5 | 21.3 | >145 | 75.4 | 900 ± 305 | 165 ± 40 | 40.7 ± 14 | 239 ± 53.4 | 2190 ± 378 | 786 ± 62 | 7.68 ± 1.2 | 201 ± 36 | Cmax [2]: 28 ± 3 ng/mL; bioavailability [2]: 2.9 ± 0.19%; half-life [2]: 158 ± 51 min; AUC [6]: 2640 ± 473 ng·h/mL; C0 [6]: 993 ± 8.6 ng/mL; clearance [6]: 6.06 ± 1.2 mL/min/kg; half-life [6]: 395 ± 90 min |
| CCc1nc2c(C)cc(N3CCN(CC(=O)N4CC(O)C4)CC3)cn2c1N(C)c1nc(-c2ccc(F)cc2)c(C#N)s1 [GLPG1690] | 1260 ± 209 | 889 ± 173 | 189 ± 108 | – | – | 244 ± 118 | 117.9 | 32.1 | 10.3 | 4.8 | 9.2 | 10.8 | 5760 ± 672 | 1130 ± 229 | 66.2 ± 7.5 | 182 ± 46.2 | 8650 ± 328 | 5120 ± 1380 | 1.91 ± 0.07 | 127 ± 73.8 | Cmax [2]: 72.6 ± 38 ng/mL; bioavailability [2]: 4.51 ± 2.1%; half-life [2]: 109 ± 37.8 min; AUC [6]: 2770 ± 246 ng·h/mL; C0 [6]: 4210 ± 1150 ng/mL; clearance [6]: 6.02 ± 0.51 mL/min/kg; half-life [6]: 84.6 ± 11.4 min |
| CCc1nn2cc(F)c(N3CC4(CN(C(=O)[C@H]5CCOC5)C4)C3)cc2c1N(C)c1nc(-c2ccc(F)cc2)c(C#N)s1 [Example 102, 2-[[2-ethyl-6-fluoro-5-[2-[(3S)-tetrahydrofuran-3-carbonyl]-2,6-diazaspiro[3.3]heptan-6-yl]pyrazolo[1,5-a]pyridin-3-yl]-methyl-amino]-4-(4-fluorophenyl)thiazole-5-carbonitrile] | 7520 ± 498 | 732 ± 95 | 332 ± 12 | ≤ 100 | ≤ 100 | – | 76.6 | 69.8 | 17.9 | 6.4 | 67.3 | 13.4 | 2190 ± 325 | 192 ± 26 | 33.9 ± 5 | 1220 ± 366 | 6480 ± 703 | 1070 ± 34.4 | 1.85 ± 0.28 | 888 ± 34.2 | – |
| CCc1nn2cc(F)c(N3CCN(CC(=O)N4CC(O)C4)CC3)cc2c1N(C)c1nc(-c2ccc(F)cc2)c(C#N)s1 [Example 101, 2-[[2-ethyl-6-fluoro-5-[4-[2-(3-hydroxyazetidin-1-yl)-2-oxo-ethyl]piperazin-1-yl]pyrazolo[1,5-a]pyridin-3-yl]-methyl-amino]-4-(4-fluorophenyl)thiazole-5-carbonitrile] | 2050 ± 884 | 268 ± 76 | 197 ± 15 | ≤ 100 | ≤ 100 | 1380 ± 904 | >216.8 | 71.9 | 14.0 | 9.8 | 96.6 | 24.5 | 4020 ± 549 | 425 ± 68 | 36.1 ± 4.9 | 281 ± 10.2 | 10700 ± 1810 | 2290 ± 172 | 1.53 ± 0.27 | 304 ± 51 | Cmax [2]: 239 ± 119 ng/mL; bioavailability [2]: 35.6 ± 22%; half-life [2]: 149 ± 32.4 min; AUC [6]: 1990 ± 92 ng·h/mL; C0 [6]: 1220 ± 166 ng/mL; clearance [6]: 8.21 ± 0.38 mL/min/kg; half-life [6]: 109 ± 6 min |
